According to ChEMBL document CHEMBL1201862, “PubChem BioAssay data set” (2004):
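Cells were grown in 96-well plates and exposed to each compound for 48 hours at five concentrations; endpoints were interpolated linearly between bracketing concentrations, or set to the highest concentration if not reached. Here, GI50 denotes the concentration required for 50% inhibition of growth.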 Activity calls are given as the source filed them. Cut-off read from the data, not from the text of the source: active = GI50 up to about 1.1 µM and inactive = higher.

How the values were obtained:
Assay in all cases: NCI-60 cell line screen, 48 h
[1] = tested on: Hs-578T
[2] = tested on: RPMI-8226
[3] = tested on: MCF7
[4] = tested on: HL-60
[5] = tested on: SF-539
[6] = tested on: LOX IMVI
[7] = tested on: SNB-75
[8] = tested on: TK-10
[9] = tested on: NCI-H23
[10] = tested on: SK-MEL-2
[11] = tested on: HOP-92
[12] = tested on: SK-MEL-5
[13] = tested on: SK-MEL-28
[14] = tested on: K562
[15] = tested on: HOP-62
[16] = tested on: KM12
[17] = tested on: RXF 393
[18] = tested on: BT-549
[19] = tested on: MDA-MB-435
[20] = tested on: IGROV-1

Measured: GI50

OC(c1ccc(F)cc1)(c1ccc(F)cc1)C1CC1
inactive: [1] 26.9 µM | [2] 26.9 µM | [3] 35.7 µM | [4] 21.3 µM | [5] 33.3 µM | [6] 20 µM | [7] 50.6 µM | [8] 30.7 µM | [9] 17.5 µM | [10] 16.1 µM | [11] 33.8 µM | [12] 16.6 µM | [13] 30 µM | [14] 31.4 µM | [15] 65.9 µM | [16] 26.7 µM | [17] 26.9 µM | [18] 19.2 µM | [19] 23 µM | [20] 28.9 µM

CCN(CC)CCOC(=O)Cc1cccc2c(=O)cc(-c3ccccc3)oc12
inactive: [1] 28.3 µM | [2] 35.8 µM | [3] 54.1 µM | [4] 36.3 µM | [5] 44.1 µM | [6] 29.6 µM | [7] 41.7 µM | [8] 44.1 µM | [9] 45.8 µM | [10] > 150 µM | [11] 21.7 µM | [12] 32 µM | [13] 54 µM | [14] 40.3 µM | [15] 46.8 µM | [16] 34.8 µM | [17] 41.5 µM | [18] 40.7 µM | [19] 55.1 µM | [20] 44.6 µM
